For this assay, the target named is tau (2N4R) (Homo sapiens, UniProt P10636). The assay is described as follows: arachidonic acid-induced tau aggregation, filter trap assay dose-response. Type of assay: biochemical.
tau (2N4R), sequence (P10636 1-441 isoform P10636-8): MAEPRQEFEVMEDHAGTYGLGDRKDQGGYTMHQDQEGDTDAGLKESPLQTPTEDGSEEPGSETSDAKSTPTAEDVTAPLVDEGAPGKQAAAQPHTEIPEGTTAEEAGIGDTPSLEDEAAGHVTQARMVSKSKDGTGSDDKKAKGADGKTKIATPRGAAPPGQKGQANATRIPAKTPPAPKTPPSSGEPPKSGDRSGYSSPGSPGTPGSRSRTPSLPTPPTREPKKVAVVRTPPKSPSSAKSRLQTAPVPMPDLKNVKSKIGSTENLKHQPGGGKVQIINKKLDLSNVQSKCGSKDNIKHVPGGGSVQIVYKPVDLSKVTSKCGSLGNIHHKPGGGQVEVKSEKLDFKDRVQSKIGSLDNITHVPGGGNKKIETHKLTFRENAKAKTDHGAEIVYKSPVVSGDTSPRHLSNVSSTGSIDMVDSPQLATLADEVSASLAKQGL

Usually IC50 stands for the concentration that gives 50% inhibition. The low end stands for inhibition by little substance, the high end for a need for much substance. asperbenzaldehyde: it took 177 ± 103 µM to reach half-maximal inhibition (IC50).
In turn, `O=C1c2cc(CO)cc(O)c2C(=O)c2c1cc(O)c(O)c2O` [2,ω-dihydroxyemodin] displayed an IC50 of 205 ± 28 µM.
To `O=C1c2c(cc(CO)c(O)c2O)C(=O)c2c(O)c(O)cc(O)c21` [asperthecin] belongs 39 ± 2 µM.

These data come from paper PMC6442474 (Planta medica, 2014).
